Data set [1] has as its system pesticide-resistant green rice leafhopper (Nephotettix cincticeps). The data set can be described thus: whole plant or invertebrate. Format: in vivo. The settings on record: for mortality at 0.0125 % / mortality at 0.0225 %: Nephotettix cincticeps, 24 h, read-out: Mortality (%) after 24 hours. How it is done:
The dilute solution was sprayed on rice plants in a 180-ml plastic cup at a rate of 15 cc/3 cups by means of a turn table. After air-drying, the treated rice plants were placed in a 5-liter beaker which was then covered with gauze. About 15 female adults of pesticide-resistant green rice leafhopper (Nephotettix cincticeps) were released in the beaker. After 3 hours, the knock-down ratio was examined, and after 24 hours the mortality was examined.

In data set [2] the test system is green rice leafhoppers (Nephotettix cincticeps). The data set can be described thus: Density index of green rice leafhopper adults in paddy field, sweeping method (Experimental example 1). The settings on record: 3 kg/10 are, untreated = 100. Format: in vivo.
A further data set is described as follows: in vivo. The settings on record: mouse, po.
The test system of data set [3] is pesticide-resistant green rice leafhopper (Nephotettix cincticeps). The data set can be described thus: Mortality of pesticide-resistant green rice leafhopper on dusted rice plants (Experimental example 3). Format: in vivo. The settings on record: 2 kg/10 are. How it is done:
The dusts (36), (37), (39), (43), (47) or (48) prepared in Preparation example 2 were each applied by means of a Bell jar duster to rice plants in a 1/10,000 are Wagner's pot at a rate of 2 kg/10 are. The treated pot was placed in a cylinder (diameter 20 cm, height 60 cm) which was then covered with gauze. About 30 female adults of pesticide-resistant green rice leafhopper (Nephotettix cincticeps) were liberated therein. After 24 hours, the mortality was examined.

The test system of data set [4] is rice stem borer (Chilo suppressalis). The data set is described as follows: Mortality of rice stem borer on dusted rice plants (Experimental example 4). Format: in vivo. The settings on record: 3 kg/10 are, five days after application, 7200 min. The text has this: About 50 eggs just before hatch of rice stem borer (Chilo suppressalis) were put on rice plants at the tiller stage cultivated in a 1/5,000 are Wagner's pot. After 5 days, the dust (1) prepared in Preparation example 2 was applied thereto at a rate of 3 kg/10are by means of a Bell jar duster. Five days after application, the rice stem was dissected to observe the dead and alive of rice stem borers.

The nature of data set [5]: Fish toxicity to carps, TLm48 (Experimental example 6). Format: in vivo. The settings on record: carp, in vivo, read-out: TLm48 (ppm). How it is done:
(§1) Ten liters of the dilute solution was placed in a 10-liter glass vessel and 10 carps were liberated therein. After 48 hours, the dead and alive were examined to calculate TLm48 (ppm).

The test system of a further data set is harmful organisms. The settings on record: reported in Published Unexamined Japanese Patent Application No. 125145/1977; cited from earlier work.
The next data set concerns carps. The data set is described as follows: Fish toxicity to carps, TLm48 (Experimental example 6). Format: in vivo. The settings on record: as 0.3% dust; 48 hours. On the procedure: as §1
Setting [6] is: as 20% wettable powder, diluted 25,000 times.
The mark [7] stands for this setting: 25% wettable powder, diluted 2,000 times.

Like-named read-outs stand apart in the source and are kept apart here.

Regarding `CC1(C)C(C=C(Cl)Cl)C1C(=O)OC(C#N)c1cccc(Oc2ccc(Br)cc2)c1` (racemic), in data set [1] (setting [6]), the “Knock-down ratio (%) after 3 hours” value was 50% and the “Mortality (%) after 24 hours” value is on record as 80%.
By LD50 is commonly meant the dose expected to kill half of the subjects tested. Turning to `CC1(C)C(C=C(Cl)Cl)C1C(=O)OC(C#N)c1cccc(Oc2ccc(Br)cc2)c1` (racemic) [m-(p-bromophenoxy)-α-cyanolbenzyl trans- or trans-rich-2,2-dimethyl-3-(2,2-dichlorovinyl)cyclopropanecarboxylate], in data set [2] (as 0.1% dust), the “Density index After 2 days” value came out at 5 and the “Density index After 15 days” value is given as 25. This compound displayed an LD50 at 24 h in “in vivo” of over 2000 mg/kg. The “Mortality (%) after 24 hours” value in data set [3] (as 0.05% dust) is 85%.
For the compound `CC1(C)[C@H](C=C(Cl)Cl)[C@H]1C(=O)OC(C#N)c1cccc(Oc2ccc(Br)cc2)c1` (relative stereo) [Compound of the formula (I) [dl(acid moiety)-trans isomer], m-(p-bromophenoxy)-α-cyanolbenzyl trans- or trans-rich-2,2-dimethyl-3-(2,2-dichlorovinyl)cyclopropanecarboxylate], in data set [2] (as 0.1% dust), the “Density index After 2 days” value came out at 3 and the “Density index After 15 days” value worked out at 18. In addition, the “Mortality (%)” value in data set [4] (as 0.1% dust) was found to be 20%. For the same compound, the LC50 at 48 h in data set [5] (as 0.1% dust) was over 5 µg/mL. In the data set “in vivo”, this compound gave an LD50 at 24 h of over 2000 mg/kg.
Usually mortality stands for the percentage killed. For `CCC(C)c1ccccc1OC(=O)NC` (centres unmarked) [BPMC, 2-sec-Butylphenyl N-methylcarbamate], in data set [1] (setting [7]), the “Knock-down ratio (%) after 3 hours” value is 3% and the mortality at 0.0125 % stood at 3%.
For `COP(=S)(OC)Oc1ccc(SC)c(C)c1` [Baycid, O,O-Dimethyl O-[3-methyl-4-(methylthio)phenyl]thiophosphate], the mortality at 0.0225 % in data set [1] came out at 20%. The “Knock-down ratio (%) after 3 hours” value in data set [1] (in vivo) amounted to 0%.
In the case of `CCOP(=S)(OCC)Oc1cc(C)nc(C(C)C)n1` [Diazinon, O,O-Diethyl O-(2-isopropyl-4-methyl-6-pyrimidinyl)phosphorothioate], in data set [2] (as 5% dust), the “Density index After 2 days” value came out at 20 and the “Density index After 15 days” value worked out at 35. The LC50 at 48 h in data set [5] (as 0.3% dust) was over 5 µg/mL.
Consider `CC(C)OP(=O)(OC(C)C)SCc1ccccc1` [IBP, O,O-Diisopropyl S-benzylphosphorothioate], for which the LC50 at 48 h in data set [5] (as 0.3% dust) was over 5 µg/mL. Further, in data set [1], the mortality at 0.0225 % turned out to be 0%. For the same compound, the “Knock-down ratio (%) after 3 hours” value in data set [1] (in vivo) turned out to be 0%.
On to `CCCOP(=O)(OCCC)Oc1ccc(SC)cc1` [Kayaphos, O,O-Di-n-propyl p-methylthiophenylphosphate], for which, in data set [3] (as 2% dust), the “Mortality (%) after 24 hours” value was 43%.
On to `CNC(=O)Oc1ccc(C)c(C)c1` [MPMC, 3,4-Xylyl N-methylcarbamate], for which, in data set [2] (as 3% dust), the “Density index After 2 days” value came to 7 and the “Density index After 15 days” value came to 60. In data set [1] (setting [7]), the “Knock-down ratio (%) after 3 hours” value was found to be 10%. For the same compound, the mortality at 0.0125 % in data set [1] was 10%.
With `CNC(=O)Oc1cccc(C)c1` [MTMC, m-Tolyl N-methylcarbamate], the “Mortality (%) after 24 hours” value in data set [3] (as 2% dust) is recorded as 30%.
`CNC(=O)Oc1cccc2ccccc12` [NAC, 1-Naphthyl N-methylcarbamate]: in data set [1], the mortality at 0.0125 % is 10%.
Take `CNC(=O)Oc1ccccc1OC(C)C` [PHC, 2-Isopropoxyphenyl N-methylcarbamate]: the LC50 at 48 h in data set [5] (as 0.3% dust) was over 5 µg/mL.
Turning to `COP(=S)(OC)Oc1ccc([N+](=O)[O-])c(C)c1` [Sumithion, O,O-Dimethyl O-(3-methyl-4-nitrophenyl)phosphorothioate], in data set [2] (as 5% dust), the “Density index After 2 days” value is 60 and the “Density index After 15 days” value was 95. The “Mortality (%)” value in data set [4] (as 3% dust) was 70%. The mortality at 0.0225 % in data set [1] amounted to 15%. Moreover, the “Knock-down ratio (%) after 3 hours” value in data set [1] (in vivo) was 0%. In the data set “in vivo”, the LD50 at 24 h was over 1000 mg/kg. In addition, the “Mortality (%) after 24 hours” value in data set [3] (as 2% dust) was 10%.
For `CC1(C)C(C=C(Cl)Cl)C1C(=O)OC(C#N)c1cccc(Oc2ccc(Br)cc2)c1` (stereo not drawn) [compound of the formula (I), m-(p-bromophenoxy)-α-cyanolbenzyl trans- or trans-rich-2,2-dimethyl-3-(2,2-dichlorovinyl)cyclopropanecarboxylate], the “insecticidal and acaricidal activity” value in the data set on harmful organisms was “has insecticidal and acaricidal activity”.
As for “m-Isopropylphenoxy N-methylcarbamate [MIPC]”, the “TLm48 (ppm)” value in the data set on carps is listed as over 5 ppm.

(Values after US4443438A (priority 1978, dated 1984).)
